How the values were obtained:
[1] = biological target: T1, rat bone PTH/PTHrP receptor (Rattus norvegicus, UniProt P25961, E586G); experiment: cAMP accumulation, COS cells expressing R15B; format: cell-based
T1 construct: expressed in transfected cells; host or cells: COS / COS-7 cells, transient, plasmid R15B (pcDNA I)
T1 sequence (P25961 27-591 E586G): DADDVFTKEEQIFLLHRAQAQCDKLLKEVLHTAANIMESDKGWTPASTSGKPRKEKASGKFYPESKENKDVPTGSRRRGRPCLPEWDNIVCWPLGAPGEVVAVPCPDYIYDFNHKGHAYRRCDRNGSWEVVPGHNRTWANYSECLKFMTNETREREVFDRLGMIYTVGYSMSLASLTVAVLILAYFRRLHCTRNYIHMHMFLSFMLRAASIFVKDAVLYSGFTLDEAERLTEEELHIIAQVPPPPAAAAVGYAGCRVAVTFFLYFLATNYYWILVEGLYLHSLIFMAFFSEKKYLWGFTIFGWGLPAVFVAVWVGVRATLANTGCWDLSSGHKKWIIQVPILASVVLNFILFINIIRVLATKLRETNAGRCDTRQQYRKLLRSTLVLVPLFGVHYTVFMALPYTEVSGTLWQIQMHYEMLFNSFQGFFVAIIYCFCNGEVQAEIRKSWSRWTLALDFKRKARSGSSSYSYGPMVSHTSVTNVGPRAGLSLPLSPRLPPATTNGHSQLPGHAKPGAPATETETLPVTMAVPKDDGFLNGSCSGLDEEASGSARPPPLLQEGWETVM
Method: Intracellular cAMP accumulation was measured as described previously (Abou-Samra et al., J. Biol. Chem. 262:1129, 1986). Cells in 24-well plates were rinsed with culture medium containing 0.1% BSA and 2 mM IBMX. […] The supernatant was removed and the cells immediately frozen by placing the whole plate in dry ice powder. Intracellular cAMP was extracted by thawing the cells in 1 ml of 50 mM HCl and analyzed by a specific radioimmunoassay using an anti-cAMP antibody (e.g., Sigma, St. Louis, Mo.). A cAMP analog (2′-O-monosuccinyl-adenosine 3′:5′-cyclic monophosphate tyrosyl methyl ester, obtained from Sigma) which was used a tracer for cAMP was iodinated by the chloramine T method. Free iodine was removed by adsorbing the iodinated cAMP analog onto a C18 Sep-pak cartridge (Waters, Milford, Mass.). After washing with dH2O, the iodinated cAMP analog was eluted from the Sep-pak Cartridge with 40% acetonitrille (ACN) and 0.1% trifluoroacetic acid (TFA). The iodinated cAMP analog was lyophilized, reconstituted in 1 ml 0.1% TFA, and injected into a C18 reverse phase HPLC column (Waters). The column was equilibrated with 10% ACN in 0.1% TFA, and eluted with gradient of 10-30% ACN in 0.1% TFA. This allows separation of the mono-iodinated cAMP analog from the non-iodinated cAMP analog. […] The standard used for the assay, adenosine 3′:5′-cyclic monophosphate, was purchased from Sigma. […]

[2] = biological target: T2, opossum kidney PTH/PTHrp receptor clone, OK-O (Didelphis virginiana, UniProt P25107, I132F/S86P); experiment: Intracellular free calcium, COS cells expressing OK-O; format: cell-based; conditions: FIG. 12
T2 construct: expressed in transfected cells; host or cells: COS cells, transient, plasmid OK-O (pcDNA I)
Method: Details of the methodology are:
Coverslips plated with COS cells were incubated in Fura-2 AM loading buffer containing, in mM: HEPES (N-[2-Hydroxyethyl]piperazine-N′-[2-ethanesulfonic acid]), 20; CaCl2, 1; KCl 5; NaCl, 145; MgSO4, 0.5; NaHCO3, 25; K2HPO4, 1.4; glucose, 10; and Fura-2 AM 91-(2-5′-carboxyoxazol-2′-yl)-6-aminobenzofuran-5oxy-(2′-amino-5′-methylphenoxy)ethane-N,N,N′,N′-tetraaecetic acid acetomethoxy ester), 0.5; at 37° C. at pH7.4, aerated with 95% air and 5% CO2 for 45 minutes. Cells loaded with Fura-2 AM were then washed with a modified Krebs-Heinseleit (KH) buffer containing, in mM: HEPES, 20; CaCl2, 1; KCl, 5; NaCl, 145; MgSO4, 0.5; Na2HPO4, 1; glucose, 5; pH7.4. To check that cleavage of the ester occurred, the excitation spectra after different times of Fura-2 AM incubation were measured.
To measure fluorescence of individual cells, the cover slips were placed in a microscope tissue chamber (Biophysica Technologies, Inc., MD). The chamber consisted of a shallow, sloped compartment made of Teflon with a silicone rubber seal. The cover slips served as the bottom of the chamber. A heater/cooler ring was encased in the silicone rubber which sealed the coverslip in place.

T2 sequence (P25107 27-585 S86P/I132F): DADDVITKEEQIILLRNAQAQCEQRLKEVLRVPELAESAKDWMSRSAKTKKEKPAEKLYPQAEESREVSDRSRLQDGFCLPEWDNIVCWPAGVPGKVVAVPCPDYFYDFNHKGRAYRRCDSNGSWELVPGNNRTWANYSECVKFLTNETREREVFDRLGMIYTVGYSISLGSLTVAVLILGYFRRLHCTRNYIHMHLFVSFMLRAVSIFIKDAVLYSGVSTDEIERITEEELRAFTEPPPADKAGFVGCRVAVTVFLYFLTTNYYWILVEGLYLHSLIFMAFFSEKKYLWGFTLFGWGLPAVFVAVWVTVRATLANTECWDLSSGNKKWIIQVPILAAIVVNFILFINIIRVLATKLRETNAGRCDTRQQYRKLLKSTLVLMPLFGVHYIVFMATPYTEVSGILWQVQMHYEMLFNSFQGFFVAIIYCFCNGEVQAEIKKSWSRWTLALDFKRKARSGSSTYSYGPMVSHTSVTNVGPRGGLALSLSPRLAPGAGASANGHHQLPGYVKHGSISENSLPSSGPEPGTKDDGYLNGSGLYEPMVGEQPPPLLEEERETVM

[Nle^8,18, Tyr^34]bPTH(1-34)amide
cAMP accumulation ([1]; COS cells expressing R15B, FIG. 16): increase cAMP accumulation | cAMP accumulation, PTH(1-34) compared with PTHrP(1-36) ([1]; COS-7 cells expressing rat receptor): to the same extent | increase in intracellular free calcium [2]: increase

Source: patent US7150974B1, “Parathyroid hormone receptor binding method” (The General Hospital Corporation, priority 1991, dated 2006)
